Experiments:
[1] = target: T1, CYP1A2 (Homo sapiens, UniProt P05177); assay: Test Example 6: CYP inhibition test, 7-ethoxyresorufin O-deethylation (CYP1A2); format: in vitro ADME; settings: pooled human hepatic microsome, 0.5 μmol/L ethoxyresorufin
T1 construct: enzyme, pooled human hepatic microsome 0.2 mg protein/mL; from tissue; host or cells: pooled human liver microsomes
T1 sequence (P05177 1-516): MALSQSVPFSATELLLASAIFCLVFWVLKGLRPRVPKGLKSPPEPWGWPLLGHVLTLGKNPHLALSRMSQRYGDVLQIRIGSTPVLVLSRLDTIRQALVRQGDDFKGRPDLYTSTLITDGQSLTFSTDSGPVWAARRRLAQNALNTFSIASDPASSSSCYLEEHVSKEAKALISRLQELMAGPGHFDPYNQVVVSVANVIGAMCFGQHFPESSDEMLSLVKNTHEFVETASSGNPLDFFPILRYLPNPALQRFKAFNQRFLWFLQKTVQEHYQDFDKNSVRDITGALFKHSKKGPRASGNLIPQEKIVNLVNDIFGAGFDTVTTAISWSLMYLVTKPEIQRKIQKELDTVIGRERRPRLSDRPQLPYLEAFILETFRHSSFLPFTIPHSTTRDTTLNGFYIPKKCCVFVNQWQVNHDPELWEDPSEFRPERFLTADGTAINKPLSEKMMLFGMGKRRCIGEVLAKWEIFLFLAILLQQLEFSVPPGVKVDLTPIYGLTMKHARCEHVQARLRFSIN
Procedure: (§1) Test Example 6 CYP Inhibition Test […] The reaction conditions were as follows: substrate, 0.5 μmol/L ethoxyresorufin (CYP1A2), 100 μmol/L tolbutamide (CYP2C9), 50 μmol/L S-mephenytoin (CYP2C19), 5 μmol/L dextromethorphan (CYP2D6), 1 μmol/L terfenedine (CYP3A4); reaction time, 15 minutes; reaction temperature, 37° C.; enzyme, pooled human hepatic microsome 0.2 mg protein/mL; concentration of the compound of the present invention, 1, 5, 10, 20 μmol/L (four points). Each five kinds of substrates, human hepatic microsome, and the compound of the present invention in 50 mmol/L Hepes buffer as a reaction solution were added to a 96-well plate at the composition as described above. NADPH, as a cofactor was added to initiate metabolism reactions as markers and, after the incubation at 37° C. for 15 minutes, a methanol/acetonitrile=1/1 (v/v) solution was added to stop the reaction. After the centrifugation at 3000 rpm for 15 minutes, resorufin (CYP1A2 metabolite) in the supernatant was quantified by a fluorescent multilabel counter and toltributamide hydroxide (CYP2[…] metabolite), mephenytoin 4' hydroxide (CYP2C19 metabolite), […], and terfenadine alcohol (CYP3A4 metabolite) were quantified by LC/MS/MS. Addition of only DMSO being a solvent dissolving the compound of the present invention to a reaction system was adopted as a control (100%). Remaining activity (%) was calculated at each concentration of the compound of the present invention added as the solution and IC50 was calculated by reverse presumption by a logistic model using a concentration and an inhibition rate.

[2] = target: T2, CYP3A4 (Homo sapiens, UniProt P08684); assay: Test Example 6: CYP inhibition test, terfenedine hydroxylation (CYP3A4); format: in vitro ADME; settings: pooled human hepatic microsome, 1 μmol/L terfenedine
T2 construct: enzyme, pooled human hepatic microsome 0.2 mg protein/mL; from tissue; host or cells: pooled human liver microsomes
Procedure: as §1

[3] = Test Example 9: Metabolism stability test; format: in vitro ADME; settings: human liver microsomes 0.5 mg protein/mL, 30 minutes at 37° C., NADPH, compound concentration 0.5 μmol/L
Procedure: Metabolism Stability Test
Using a commercially available pooled human hepatic microsomes, a compound of the present invention was reacted for a constant time, a remaining rate was calculated by comparing a reacted sample and an unreacted sample, thereby, a degree of metabolism in liver was assessed.
A reaction was performed (oxidative reaction) at 37° C. for 0 minute or 30 minutes in the presence of 1 mmol/L NADPH in 0.2 mL of a buffer (50 mmol/L Tris-HCl pH 7.4, 150 mmol/L potassium chloride, 10 mmol/L magnesium chloride) containing 0.5 mg protein/mL of human liver microsomes. After the reaction, 50 μL of the reaction mixture was added to 100 μL of a methanol/acetonitrile=1/1 (v/v), mixed and centrifuged at 3000 rpm for 15 minutes. The compound of the present invention in the supernatant was quantified by LC/MS/MS, and a remaining amount of the compound of the present invention after the reaction was calculated, letting a compound amount at 0 minute reaction time to be 100%. Hydrolysis reaction was performed in the absence of NADPH and glucuronidation reaction was in the presence of 5 mmol/L UDP-glucuronic acid in place of NADPH, followed by similar operations.
(Results) Compound concentration: 0.5 μmol/L

[4] = target: T3, CYP2C9 (Homo sapiens, UniProt P11712); assay: Test Example 6: CYP inhibition test, tolbutamide methyl-hydroxylation (CYP2C9); format: in vitro ADME; settings: pooled human hepatic microsome, 100 μmol/L tolbutamide
T3 construct: enzyme, pooled human hepatic microsome 0.2 mg protein/mL; from tissue; host or cells: pooled human liver microsomes
Procedure: as §1

[5] = target: T4, CYP2C19 (Homo sapiens, UniProt P33261); assay: Test Example 6: CYP inhibition test, mephenytoin 4′-hydroxylation (CYP2C19); format: in vitro ADME; settings: pooled human hepatic microsome, 50 μmol/L S-mephenytoin
T4 construct: enzyme, pooled human hepatic microsome 0.2 mg protein/mL; from tissue; host or cells: pooled human liver microsomes
Procedure: as §1

[6] = target: T5, CYP2D6 (Homo sapiens, UniProt P10635); assay: Test Example 6: CYP inhibition test, dextromethorphan O-demethylation (CYP2D6); format: in vitro ADME; settings: pooled human hepatic microsome, 5 μmol/L dextromethorphan
T5 construct: enzyme, pooled human hepatic microsome 0.2 mg protein/mL; from tissue; host or cells: pooled human liver microsomes
Procedure: as §1

[7] = target: T6, human TRPV4 (hTRPV4/CHO cells) (Homo sapiens, UniProt Q9HBA0); assay: Test Example 1: TRPV4 inhibitory activity (IC50 value), 4α-PDD stimulation, Fluo4 calcium fluorescence (FLIPR TETRA); format: cell-based; settings: Test Example 1, 4α-PDD stimulation, read-out: Test 1 IC50
T6 construct: expressed in transfected cells; host or cells: CHO-K1

[8] = target: T7, CYP3A4 enzyme expressed in Escherichia coli (Homo sapiens, UniProt P08684); assay: Test Example 5: CYP3A4 fluorescent MBI test; format: in vitro ADME; settings: substrate 7-BFC, pre-reaction 30 minutes, compound 0.625-20 μmol/L
T7 construct: host or cells: Escherichia coli
Procedure: CYP3A4 Fluorescent MBI Test
The CYP3A4 fluorescent MBI test is a test of investigating enhancement of CYP3A4 inhibition of a compound of the present invention by a metabolism reaction, and the test was performed using, as CYP3A4 enzyme expressed in Esherichia coli and employing, as an index, a reaction in which 7-benzyloxytrifluoromethylchmarin (7-BFC) is debenzylated by the CYP3A4 enzyme to produce a metabolite, 7-hydroxytrifluoromethylchmarin (HFC) emitting fluorescent light.
The reaction conditions were as follows: substrate, 5.6 μmol/L 7-BFC; pre-reaction time, […] or 30 minutes; reaction time, 15 minutes; reaction temperature, 25° C. […]
An enzyme in a K-Pi buffer (pH 7.4) and a solution of the compound of the present invention as a pre-reaction solution were added to a 96-well plate at the above composition of the pre-reaction. […] For the plate on which each index reaction had been performed, a fluorescent value of 7-HFC which is a metabolite was measured with a fluorescent plate reader. […]
Addition of only DMSO which is a solvent dissolving the compound of the present invention to a reaction system was adopted as a control (100%). Remaining activity (%) was calculated at each concentration of the compound of the present invention added as the solution, and IC50 was calculated by reverse-presumption by a logistic model using a concentration and an inhibition rate. […]

[9] = Test Example 11: BA test (oral absorbability); format: in vivo; settings: plasma; Mouse, oral administration 1 mg/kg
Procedure: Materials and methods for experiments to evaluate oral absorbability
(1) Experimental animals: rats or mice were used. (2) Breeding condition: rats or mice were allowed free access to solid feed and sterilized tap water (3) Setting of dosage and grouping: Oral administration and intravenous administration were performed with the predetermined dosage. Grouping was set as below. (Dosage varied depending on each compound)
Oral administration 1 to 30 mg/kg (n=2 to 3)
Intravenous administration 0.5 to 10 mg/kg (n=2 to 3)
(4) Preparation of administered liquid: Oral administration was performed using a solution or a suspension. Intravenous administration was performed after solubilization. (5) Method of Administration: In oral administration, compulsory administration to the stomach was conducted using an oral sonde. […] (6) Evaluation items: Blood was chronologically collected, and then concentration of a compound of the present invention in blood plasma was measured using a LC/MS/MS. […]
(7) Statistical analysis: With regard to a shift in plasma concentration of the compound of the present invention, the area under the plasma concentration-time curve (AUC) was calculated using a nonlinear least-squares program, WinNonlin (a registered trademark). Bioavailability (BA) was calculated from the AUCs of the oral administration group and the intravenous administration group. […]

[10] = tested on: Salmonella typhimurium TA98 strain, TA100 strain; assay: Test Example 7: FAT test (mutagenicity); set-up: key: (−) means that mutagenicity is negative; (+) is positive; settings: TA98 and TA100 strains, non-metabolism activating and metabolism activating conditions
Procedure: Mutagenicity of a compound of the present invention was evaluated.
[…] of freezing-stored rat typhoid bacillus (Salmonella typhimurium TA98 strain, TA100 strain) was inoculated on 10 mL of a liquid nutrient medium (2.5% Oxoid nutrient broth No. 2), and this was cultured before shaking at 37° C. for 10 hours. 9 mL of a bacterial solution of the TA98 strain was centrifuged (2000×g, 10 minutes) to remove a culturing solution. The bacteria was suspended in 9 mL of a Micro F buffer (K2HPO4: 3.5 g/L, KH2PO4: 1 g/L, (NH4)2SO4: 1 g/L, trisodium citrate dehydrate: 0.25 g/L, MgSO4*7H2O: 0.1 g/L), the suspension was added to 110 mL of an Exposure medium (Micro F buffer containing Biotin: 8 μg/mL, histidine: 0.2 μg/mL, glucose: 8 mg/mL). The TA100 strain was added to 120 mL of the Exposure medium relative to 3.16 mL of the bacterial solution to prepare a test bacterial solution. […] Since a well containing a bacterium which has obtained the proliferation ability by mutation of an amino acid (histidine) synthesizing enzyme gene turns from purple to yellow due to a pH change, the bacterium proliferation well which has turned to yellow in 48 wells per dose was counted, and was assessed by comparing with a negative control group. […]

T6 sequence (Q9HBA0 whole entry): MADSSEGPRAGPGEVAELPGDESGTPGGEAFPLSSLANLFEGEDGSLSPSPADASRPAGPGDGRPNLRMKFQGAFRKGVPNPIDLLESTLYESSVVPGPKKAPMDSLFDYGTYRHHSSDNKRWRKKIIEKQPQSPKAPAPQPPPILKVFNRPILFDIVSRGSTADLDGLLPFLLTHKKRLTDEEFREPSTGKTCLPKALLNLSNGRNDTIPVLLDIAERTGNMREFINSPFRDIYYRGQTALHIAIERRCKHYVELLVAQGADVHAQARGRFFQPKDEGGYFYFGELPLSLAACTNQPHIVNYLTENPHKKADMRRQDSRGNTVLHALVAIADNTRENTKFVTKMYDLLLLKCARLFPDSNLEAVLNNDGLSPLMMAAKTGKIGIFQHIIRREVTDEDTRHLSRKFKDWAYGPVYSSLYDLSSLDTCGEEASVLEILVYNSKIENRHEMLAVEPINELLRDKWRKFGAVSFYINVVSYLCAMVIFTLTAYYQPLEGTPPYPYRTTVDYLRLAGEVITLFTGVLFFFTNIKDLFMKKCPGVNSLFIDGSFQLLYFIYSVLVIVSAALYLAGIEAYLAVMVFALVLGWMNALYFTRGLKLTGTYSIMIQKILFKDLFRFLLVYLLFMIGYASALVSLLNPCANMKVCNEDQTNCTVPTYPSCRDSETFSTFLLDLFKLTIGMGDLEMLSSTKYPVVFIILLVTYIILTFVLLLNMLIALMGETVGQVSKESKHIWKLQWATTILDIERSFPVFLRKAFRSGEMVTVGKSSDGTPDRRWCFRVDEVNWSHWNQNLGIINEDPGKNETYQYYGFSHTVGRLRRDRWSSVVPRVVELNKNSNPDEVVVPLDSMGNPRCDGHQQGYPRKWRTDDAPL
T4 sequence (P33261 whole entry): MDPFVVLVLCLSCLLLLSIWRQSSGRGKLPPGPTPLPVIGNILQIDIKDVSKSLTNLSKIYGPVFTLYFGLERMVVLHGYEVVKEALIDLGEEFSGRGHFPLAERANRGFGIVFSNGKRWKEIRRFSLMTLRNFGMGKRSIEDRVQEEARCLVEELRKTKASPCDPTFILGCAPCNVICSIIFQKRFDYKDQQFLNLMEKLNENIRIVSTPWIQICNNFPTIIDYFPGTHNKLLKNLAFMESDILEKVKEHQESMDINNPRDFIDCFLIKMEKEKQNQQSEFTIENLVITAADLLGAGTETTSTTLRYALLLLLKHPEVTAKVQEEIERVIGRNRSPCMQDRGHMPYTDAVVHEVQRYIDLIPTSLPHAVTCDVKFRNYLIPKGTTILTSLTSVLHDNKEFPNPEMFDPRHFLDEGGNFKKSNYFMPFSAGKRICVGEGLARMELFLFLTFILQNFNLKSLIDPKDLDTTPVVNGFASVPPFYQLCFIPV
T2 sequence (P08684 whole entry): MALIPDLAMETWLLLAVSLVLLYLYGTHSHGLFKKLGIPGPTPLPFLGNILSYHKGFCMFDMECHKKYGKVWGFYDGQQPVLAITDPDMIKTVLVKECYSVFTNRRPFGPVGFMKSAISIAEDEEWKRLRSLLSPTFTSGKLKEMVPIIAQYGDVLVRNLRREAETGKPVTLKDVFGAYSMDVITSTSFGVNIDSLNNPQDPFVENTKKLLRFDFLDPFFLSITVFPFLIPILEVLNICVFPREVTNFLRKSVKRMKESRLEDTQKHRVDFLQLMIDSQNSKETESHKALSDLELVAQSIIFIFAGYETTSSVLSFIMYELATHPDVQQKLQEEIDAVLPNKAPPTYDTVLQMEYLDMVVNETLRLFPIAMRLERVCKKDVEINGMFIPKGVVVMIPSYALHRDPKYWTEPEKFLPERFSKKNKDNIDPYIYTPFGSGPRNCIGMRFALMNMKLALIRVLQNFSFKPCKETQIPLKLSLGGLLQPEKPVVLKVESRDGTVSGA
T7 sequence (P08684 whole entry): as above
T5 sequence (P10635 whole entry): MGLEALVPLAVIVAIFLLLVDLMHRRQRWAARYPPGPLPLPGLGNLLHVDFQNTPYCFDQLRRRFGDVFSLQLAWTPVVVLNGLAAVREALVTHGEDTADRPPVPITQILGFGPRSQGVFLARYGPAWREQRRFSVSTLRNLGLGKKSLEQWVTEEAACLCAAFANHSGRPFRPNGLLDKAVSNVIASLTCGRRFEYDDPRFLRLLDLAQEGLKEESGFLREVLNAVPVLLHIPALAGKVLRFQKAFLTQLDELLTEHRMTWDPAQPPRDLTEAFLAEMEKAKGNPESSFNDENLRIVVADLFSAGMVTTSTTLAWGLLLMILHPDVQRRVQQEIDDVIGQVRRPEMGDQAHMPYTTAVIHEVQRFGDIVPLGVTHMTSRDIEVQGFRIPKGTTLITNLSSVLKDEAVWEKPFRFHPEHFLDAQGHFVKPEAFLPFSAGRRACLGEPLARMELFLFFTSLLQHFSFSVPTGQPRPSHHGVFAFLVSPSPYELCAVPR
T3 sequence (P11712 whole entry): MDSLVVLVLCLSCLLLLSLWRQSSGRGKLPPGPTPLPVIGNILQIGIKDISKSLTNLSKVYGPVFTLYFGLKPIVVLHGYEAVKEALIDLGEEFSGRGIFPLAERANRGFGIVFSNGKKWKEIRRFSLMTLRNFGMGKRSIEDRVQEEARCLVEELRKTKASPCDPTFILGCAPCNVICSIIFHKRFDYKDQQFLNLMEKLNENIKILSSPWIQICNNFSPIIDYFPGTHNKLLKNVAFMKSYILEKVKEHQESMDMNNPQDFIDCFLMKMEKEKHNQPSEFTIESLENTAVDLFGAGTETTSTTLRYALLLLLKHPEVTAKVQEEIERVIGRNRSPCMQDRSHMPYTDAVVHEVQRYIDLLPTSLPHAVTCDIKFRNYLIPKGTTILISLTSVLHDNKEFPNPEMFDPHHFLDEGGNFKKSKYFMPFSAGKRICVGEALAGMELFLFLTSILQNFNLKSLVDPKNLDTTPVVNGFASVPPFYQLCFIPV

| Compound | IC50 [1] | IC50 [2] | Metabolism stability: remaining amount of the compound after the reaction [3] | IC50 [4] | IC50 [5] | IC50 [6] | IC50 [7] | CYP3A4 fluorescent MBI test: difference between IC50 values without and with preincubation [8] | bioavailability [9] | Mutagenicity (FAT test) [10] |
| --- | --- | --- | --- | --- | --- | --- | --- | --- | --- | --- |
| Cc1nc(CO)sc1-c1csc(NC(=O)C2CCC(F)(F)C2)n1 (stereo not drawn) [Compound I-95] | > 20 µM | > 20 µM | 99.4% | > 20 µM | > 20 µM | > 20 µM | 0.1 to 1 µM | – | – | – |
| Cc1nc(C(=O)NO)sc1-c1csc(NC(=O)Cc2c(F)cccc2F)n1 [Compound I-107] | > 20 µM | > 20 µM | – | > 20 µM | > 20 µM | > 20 µM | 0.1 to 1 µM | (−) (when the difference is 3 μM or less, this was defined as (−)) | – | – |
| Cc1nc(CO)sc1-c1csc(NC(=O)Cn2cc(Cl)cn2)n1 [Compound I-131] | – | – | – | – | – | – | 0.1 to 1 µM | (−) (when the difference is 3 μM or less, this was defined as (−)) | 61.4% | (−) |
